Assay results as given in patent publication US20040005294A1, “IGFBP-3 in the diagnosis and treatment of cancer” (priority 2002, published 2004).

Tests used:
1799 cells = test: MTT proliferation assay, 1799 cells; assay type: cell-based, human; settings: 2×10^−6 M or 4×10^−6 M, 2 days
Experimental: To measure the effects of deguelin on cell proliferation, NHBE, 1799, 1198, 1170-1, and HB56B cells were plated at concentrations of 2×10^3 to 4×10^3 cells/well in 96-well plates. The next day, cells were treated with either 0.1% DMSO as a diluent control or various concentrations of deguelin (final DMSO concentration=0.1%). At the end of the assay time period, cell proliferation was measured by the 3-(4,5-dimethylthiazol-2-yl)-2,5-diphenyltetrazolium bromide (MTT) assay as described (Lee et al., 2002). Six replicate wells were used for each analysis, and data from replicate wells are presented as means with 95% confidence intervals (CIs). For some experiments, the drug concentration required to inhibit cell growth by 50% (IC50) was determined by interpolation from dose-response curves. At least three independent experiments were performed.
To determine whether deguelin-induced antiproliferative effects on premalignant HBE cells were mediated through the inhibition of the PI3K/Akt pathway, 2×10^5 1799 cells/well or 1×10 ^6 squamous HBE cells/well in six-well plates were infected with 5×10 ^3 particles/cell of a control virus (Ad5CMV) or with 1×10^3 or 5×10^3 particles/cell of Ad5CMV-MyrAkt-HA, an adenoviral vector that expresses a constitutively active Akt. (MyrAkt) in KSFM. After 1 day of infection, cells were treated with 10^−7M or 10^−6M deguelin, 2×10^−6 M or 4×10^−6M N-(4-hydroxyphenyl)retinamide (4-HPR), or 0.1% DMSO as a control and then incubated for 1 or 2 days. Apoptosis was analyzed using the APO-BrdU staining kit for TUNEL, Western blot analyses for caspase-3, and the cleavage of PARP.

[1] = test system: PI3K/Akt pathway in 1799 cells; test: Immunoblot of pAkt and pGSK-3β, 1799 cells; assay type: cell-based, human; settings: 2-4 μM
Experimental: Whole cell lysates from 1×10^6 cells were prepared in lysis buffer as described (Lonardo et al., 2002). Equivalent amounts of protein were resolved by sodium dodecyl sulfate (SDS)-polyacrylamide gels (7.5%-12%) and transferred to a nitrocellulose membrane. After the membrane was blocked in Tris-buffered saline (TBS) containing 0.05% Tween 20 (TBST) and 5% (w/v) nonfat powdered milk, the membrane was incubated with primary antibody at the appropriate dilution in TBS-5% nonfat milk at 4° C. for 16 h. The membrane was then washed multiple times with TBST and incubated with the appropriate horseradish peroxidaseconjugated secondary antibody for 1 h at room temperature. The protein-antibody complexes were detected by enhanced chemilurminescence (ECL kit; Amersham, Arlington Heights, Ill.), according to the manufacturer's recommended protocol. […]

NSCLC cell lines = test: MTT cell growth assay, NSCLC cell lines; assay type: cell-based, human; settings: serum-free medium, 3 days
Experimental: To measure the effects of IGF-I and IGF-II on proliferation of NSCLC cells, 2×10^3 NSCLC cell lines were incubated in serum-free medium containing 0.01-500 ng/ml IGF-I or IGF-II for 3 days. To measure the effects of Ad5CMV-BP-3 on proliferation of NHBE and NSCLC cell lines, these cells were seeded at 1×10^−2×10^3 cells/well in 96-well plates. After 1 day, cells were untreated or infected with 1×10^3, 5×10^3, or 1×10^4 particles/cell of Ad5CMV-BP3 or Ad5CMV (parental virus) as a viral control. Infection was allowed to occur for 2 h in the absence of serum, and infected cells were grown in medium containing 100 ng/ml or 250 ng/ml IGF-I. After 3 days of incubation, the growth of infected cells was measured by the 3-(4,5-dimethylthiazol-2-yl)-2,5-diphenyltetrazolium bromide (MTT) assay as previously described (Sueoka et al., 2000).

[2] = test system: IGFBP-3 mRNA in H1299 cells; test: Northern blot of IGFBP-3 expression after demethylating agent; assay type: cell-based, human; settings: 5 days, RPMI 1640 with 2% FCS
Experimental: NSCLC cell lines and H1299 cells treated with 0.1, 1, or 5 μM of 5-aza-dC (Sigma, St. Luois, Mo.) for 5 days in RPMI 1640 medium containing 2% FCS were lysed in 4.0 M guanidinium isothiocyanate, and total cellular RNA was extracted as described previously (Kim et al., 1995). 20 μg of RNA was subjected to electrophoresis on a 1% agarose gel containing 2% formaldehyde. After gels were soaked in 50 mM NaOH/1×standard saline citrate (SSC) for 20 min followed by 10×SSC for 20 min, RNA was transferred onto a Zeta-Probe membrane (Bio-Rad Laboratories, Hercules, Calif.) overnight by the capillary transfer method. Membranes were cross-linked and then incubated in the hybridization solution containing […] IGFBP-3 or glyceraldehyde-3-phosphate dehydrogenase (GAPDH) cDNA as a control. The probe was labeled using a Prime-It® II Random Primer Kit (Stratagene, La Jolla, Calif.) and harvested with MicroSpin™ S-300 HR Columns (Amersham Phamacia Biotech Inc., Piscataway, N.J.). After overnight incubation, membranes were washed in high stringency condition and exposed to enhanced chemiluminescence (ECL) films for autoradiography.

chick embryo CAM = test: Chorioallantoic membrane angiogenesis induced by bFGF; assay type: in vivo; settings: bFGF 50 ng alone, 72 h; positive eggs/total
Experimental: To assess whether IGFBP-3 is able to inhibit angiogenesis chick embryos were induced with IGFBP3 and dnIGFIR. On day 10, each CAM was exposed to bFGF (50 ng/disk) in the absence or presence of 10^4 particles of Ad5CMV alone, Ad5CMV-IGFBP3, or Ad5CMV-dnIGFIR. After 72 h of incubation, a fat emulsion was injected into the CAM to visualize the blood vessels. CAMs were examined with a microscope to count the positive responsive eggs which have spoke wheel-like vessels. Both IGFBP3 and dnIGFIR inhibited chorioallantoic membrane angiogenesis induced by bFGF FIG. 14. The results are expressed as the percentages of embryos showing activation (FIG. 14A). Positivity for angiogenesis in chick embryos subjected to various conditions was as follows: Collagen alone: 1/5; bFGF (50 ng): 5/5; EV(10^4)+bFGF: 7/8; IGFBP3(10^4)+bFGF: 4/9; dnAKT (10^4)+bFGF: 8/9; dnIGFR (10^4)+bFGF: 4/9; and KP372 (100 nM)+bFGF: 8/9.

IGF-I = IGF-I (Homo sapiens, UniProt P05019); test: Western ligand blot of conditioned media; assay type: binding; settings: conditioned media of Ad5CMV-BP3-infected H1299 cells, [125I]IGF-I probe
Sequence of IGF-I (P05019 49-118 limits assumed, species assumed): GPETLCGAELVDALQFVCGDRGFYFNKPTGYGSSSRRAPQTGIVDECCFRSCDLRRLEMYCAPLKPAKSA
Sequence of IGF-I (P17936 28-291 partner, species assumed): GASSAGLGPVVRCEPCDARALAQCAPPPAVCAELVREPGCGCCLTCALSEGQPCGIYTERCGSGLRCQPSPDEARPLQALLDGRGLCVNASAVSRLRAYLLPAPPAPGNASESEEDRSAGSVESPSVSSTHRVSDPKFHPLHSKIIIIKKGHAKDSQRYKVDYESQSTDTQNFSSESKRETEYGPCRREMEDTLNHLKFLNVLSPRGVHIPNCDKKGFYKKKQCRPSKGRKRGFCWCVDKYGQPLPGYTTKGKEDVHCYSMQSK
Experimental: Conditioned media were collected from H1299 cells after adenoviral infection. Western blot and Western ligand blot analyses were performed using 30 μg of whole cell lysate or 30 μl of conditioned media as previously described (Sueoka et al., 2000).

H1299 cells = test: Apoptosis by APO-BRDU staining and flow cytometry; assay type: cell-based, human; settings: serum-free medium, 100 ng/ml IGF-I, 3 days
Experimental: Apoptosis was measured using the APO-BRDU staining kit (Phoenix Flow Systems, San Diego, Calif.) as previously described (Sueoka et al., 2000). Briefly, H1299 cells were untreated or infected with Ad5CMV or Ad5CMV-BP3, and then allowed to grow in serum-free medium or medium containing 10% serum or 100 ng/ml IGF-I for 3 days. Floating and adherent cells were analyzed using a FACScan flow cytometer (Becton Dickinson, San Jose, Calif.) to determine the percentage of apoptotic cells. The percentage of dead cells was determined by FACS analysis of propidium iodide-stained nuclei. Apoptosis was also determined by detecting of nucleosomal DNA fragmentation, which was measured using the TACS apoptotic DNA laddering kit (Trevigen, Inc., Gaithersburg, Md.) according to the manufacturer's protocol. Briefly, DNA was isolated from untreated or virus-infected H1299 cells by incubating the cells in lysis buffer. DNA samples were then subjected to electrophoresis on a 1.5% agarose gel and visualized by ethidium bromide staining. […] Apoptosis was measured using the APO-BRDU staining kit as described above.

With `CC1=C(/C=C/C(C)=C/C=C/C(C)=C/C(=O)Nc2ccc(O)cc2)C(C)(C)CCC1` [4-HPR, N-(4-hydroxyphenyl)retinamide, reference compound] the “cell proliferation, control versus constitutively active Akt” value (1799 cells) was “no difference in cell proliferation” and the “levels of pAkt and pGSK-3β” value [1] was “did not alter levels of pAkt and pGSK-3β”.

For “IGF-II: IGF-II purchased from R&D Systems”, the “mitogenic effect on NSCLC cell growth” value (NSCLC cell lines) was “minimal mitogenic effect”.

With `Nc1ncn([C@H]2C[C@H](O)[C@@H](CO)O2)c(=O)n1` [5-aza-dC] the “concentration reactivating IGFBP-3 expression” value [2] was “More than 1 μM”.

With “bFGF: angiogenesis inducer, 50 ng/disk, in the CAM assay” the “positivity for angiogenesis in chick embryos” value (chick embryo CAM) was 5/5.

With “IGFBP-3: insulin growth factor binding protein 3 secreted from Ad5CMV-BP3-infected H1299 cells” the “binding of secreted IGFBP-3 to IGF-I” value (IGF-I) was “bound strongly”.

For “IGF-I: insulin-like growth factor I, purchased from R&D Systems”, the “effect on serum depletion-induced apoptosis” value (H1299 cells) was “rescued H1299 cells from serum depletion-induced apoptosis” and the “concentration inducing growth of NSCLC cell lines” value (NSCLC cell lines) was > 10 ng/mL.
